Assay results as given in patent US20160068883A1, “MICRO-FLUIDIC MIXER AND METHOD OF DETERMINING PATHOGEN INACTIVATION VIA ANTIMICROBIAL SOLUTIONS” (The United States of America, as represented by the …, priority 2014, published 2016).
Values joined by “and” are separate entries in the source; they are usually repeats but may differ in a detail not shown here. Equal entries are not always repeated.

What was measured:
E. coli = experiment: Decimal reduction time (D-value) calculated from the Watson and Hom inactivation models; set-up: species or system Escherichia coli O157:H7
Excerpt: Kinetic modeling was also applied to simplify the complicated disinfection phenomena of produce wash system. Three models that are commonly used for studying bacterial disinfection kinetics with chemical-based disinfectant, including the Chick-Watson Model, the Hom Model, and the Selleck Model.
Watson developed an empirical logarithmic equation to relate the inactivation constant (k) to disinfectant concentration (C) and reaction time (t):
The Hom model is a generalized empirical equation of the Chick-Watson model considering chlorine disinfection as a pseudo first-order reaction:
The D-value here was calculated based on the empirical models developed in this study, namely the Watson model (equation 3) and the Hom model (equation 5). […] By increasing chlorine concentration to […], the D-value reduces to […] respectively.

E. coli O157:H7 = E. coli O157:H7 inactivation by free chlorine in the micro-fluidic mixer (MPN enumeration); assay type: cell-based, Escherichia coli O157:H7 (RM4406, ATCC 700728)

OCl [free chlorine, hypochlorous acid]
D-value (decimal reduction time, 90% / one log reduction) (E. coli; 1 mg/L free chlorine): 28.06 milliseconds | D-value (decimal reduction time, 90% / one log reduction) (E. coli; chlorine 5 (so in the source)): 5.72 milliseconds | D-value (decimal reduction time, 90% / one log reduction) (E. coli; chlorine 10 (so in the source)): 2.87 milliseconds | D-value (decimal reduction time, 90% / one log reduction) (E. coli; chlorine 20 (so in the source)): 1.43 milliseconds | contact time to achieve a 5-log reduction (E. coli O157:H7; 1 mg/L free chlorine): more than 1.2 second | log reduction of E. coli O157:H7 (E. coli O157:H7; 1.0 mg/L free chlorine, 0.25 second contact, suspension 1×10^8 CFU/mL): 0.14 log | log reduction of E. coli O157:H7 (E. coli O157:H7; 1.0 mg/L free chlorine, 1.00 second contact, suspension 1×10^8 CFU/mL): 4.97 log | contact time to achieve a 5-log reduction (E. coli O157:H7; 5 mg/L free chlorine): 0.50 second | contact time to achieve a 5-log reduction (E. coli O157:H7; 10 mg/L free chlorine): 0.25 second and 0.2 second | log reduction of E. coli O157:H7 (E. coli O157:H7; 10.0 mg/L free chlorine, 0.25 second contact): 5.77 log | contact time to achieve a 5-log reduction (E. coli O157:H7; 10 mg/L free chlorine, listed as chlorine): 0.2 second | contact time to achieve a 5-log reduction (E. coli O157:H7; 20 mg/L free chlorine): 0.25 second | bacterial survival in collected effluent (total pathogen inactivation control) (E. coli O157:H7; chlorine 50 mg/L, pathogen solution 10^8 MPN/mL, without dechlorinating solution): no bacterial survival detected
